SMILES strings stand for the structures. Counter-ions that a name gives are not always drawn.

One experiment deals with Cathepsin S (UniProt P25774). The experiment is described as follows: Cathepsin enzyme inhibition assay (fluorogenic peptide substrate Z-Val-Val-Arg-AMC), Cathepsin S. The conditions noted are these: enzyme 1 nM, substrate 20 μM, pH 6.5; read-out: CatS IC50. It counts as biochemical, human and mouse. The protocol: (§1) Cathepsin Enzyme Inhibition Assay
(§2) Enzyme activity is measured by observing the increase in fluorescence intensity caused by cleavage of a peptide substrate containing a fluorophore whose emission is quenched in the intact peptide.
(§3) Assay buffer: 100 mM potassium phosphate pH 6.5, EDTA-Na 5 mM, Triton X-100 0.001%, DDT 5 mM.
(§4) Enzymes (all at 1 nM): human and mouse Cathepsin S, Cat K, Cat B, Cat L Substrate (20 μM): Z-Val-Val-Arg-AMC, except for Cat K which uses Z-Leu-Arg-AMC (both from Bachem).
(§5) AMC=7-Amino-4-Methyl-Coumarin.
Enzyme is added to the substance dilutions in 96-well microtitre plates and the reaction is started with substrate. […] IC50 are calculated by standard methods. The results are expressed in μM in the following table.

In another experiment the target is Cat L (UniProt P07711). The experiment is described as follows: Cathepsin enzyme inhibition assay (fluorogenic peptide substrate Z-Val-Val-Arg-AMC), Cathepsin L. It counts as biochemical, human and mouse. The conditions noted are these: enzyme 1 nM, substrate 20 μM, pH 6.5; read-out: CatL IC50. The protocol:
as §1, §2, §3, §4, §5
Excitation 360 nm, Emission 465 nm.
Enzyme is added to the substance dilutions in 96-well microtitre plates and the reaction is started with substrate. Fluorescence emission is measured over 20 minutes, during which time a linear increase is observed in the absence of inhibitor. IC50 are calculated by standard methods. The results are expressed in μM in the following table.

In the case of `CN1CCN(c2ccc(S(=O)(=O)[C@@H]3C[C@@H](C(=O)NC4(C#N)CC4)N(C(=O)OC(C)(C)C)C3)c(C(F)(F)F)c2)CC1` [Example 8, (2S,4R)-2-(1-Cyano-cyclopropylcarbamoyl)-4-[4-(4-methyl-piperazin-1-yl)-2-trifluoromethyl-benzenesulfonyl]-pyrrolidine-1-carboxylic acid tert-butyl ester], the IC50 is 0.7 nM on Cathepsin S and at least 25000 nM at Cat L.

Take `CC(C)(C)OC(=O)N1C[C@H](S(=O)(=O)c2ccc(-n3cnc4ccccc43)cc2C(F)(F)F)C[C@H]1C(=O)NC1(C#N)CC1` [Example 9, (2S,4R)-4-(4-Benzoimidazol-1-yl-2-trifluoromethyl-benzenesulfonyl)-2-(1-cyano-cyclopropylcarbamoyl)-pyrrolidine-1-carboxylic acid tert-butyl ester]: the IC50 is 0.6 nM at Cathepsin S and at least 25000 nM on Cat L.

As for `Cc1ccc(=O)n(-c2ccc(S(=O)(=O)[C@@H]3C[C@@H](C(=O)NC4(C#N)CC4)N(C(=O)OC(C)(C)C)C3)c(C(F)(F)F)c2)n1` [Example 10, (2S,4R)-2-(1-Cyano-cyclopropylcarbamoyl)-4-[4-(3-methyl-6-oxo-6H-pyridazin-1-yl)-2-trifluoromethyl-benzenesulfonyl]-pyrrolidine-1-carboxylic acid tert-butyl ester], the IC50 on Cathepsin S was 0.7 nM; at Cat L it was at least 25000 nM.

As for `CCc1ccccc1S(=O)(=O)[C@H]1CN[C@H](C(=O)NC2(C#N)CC2)C1` [Example 11, (2S,4R)-4-(2-Ethyl-benzenesulfonyl)-pyrrolidine-2-carboxylic acid (1-cyano-cyclopropyl)-amide Hydrochloride], the values for the 50% inhibitory concentration (IC50) at Cathepsin S and at Cat L were 30 nM and at least 25000 nM, respectively.

Turning to `N#CC1(NC(=O)[C@@H]2C[C@@H](S(=O)(=O)c3ccccc3CO)CN2)CC1` [Example 12, (2S,4R)-4-(2-Hydroxymethyl-benzenesulfonyl)-pyrrolidine-2-carboxylic acid (1-cyano-cyclopropyl)-amide Hydrochloride], the 50% inhibitory concentration (IC50) was 18 nM at Cathepsin S and 42200 nM on Cat L.

Turning to `N#CC1(NC(=O)[C@@H]2C[C@@H](S(=O)(=O)c3ccccc3OC(F)(F)F)CN2)CC1` [Example 13, (2S,4R)-4-(2-Trifluoromethoxy-benzenesulfonyl)-pyrrolidine-2-carboxylic acid (1-cyano-cyclopropyl)-amide Hydrochloride], the IC50 at Cathepsin S was 46.5 nM; on Cat L, at least 25000 nM.

In the case of `N#CC1(NC(=O)[C@@H]2C[C@@H](S(=O)(=O)c3ccc(-n4ccnc4)cc3)CN2)CC1` [Example 14, (2S,4R)-4-(4-Imidazol-1-yl-benzenesulfonyl)-pyrrolidine-2-carboxylic acid (1-cyano-cyclopropyl)-amide Hydrochloride], the 50% inhibitory concentration (IC50) at Cathepsin S was 3.2 nM; at Cat L, at least 25000 nM.

For the molecule `N#CC1(NC(=O)[C@@H]2C[C@@H](S(=O)(=O)c3ccc(Cl)cc3Cl)CN2)CC1` [Example 15, (2S,4R)-4-(2,4-Dichloro-benzenesulfonyl)-pyrrolidine-2-carboxylic acid (1-cyano-cyclopropyl)-amide Hydrochloride], the IC50 at Cathepsin S was found to be 4.5 nM; at Cat L, 4920 nM.

`N#CC1(NC(=O)[C@@H]2C[C@@H](S(=O)(=O)c3c(Cl)cccc3Cl)CN2)CC1` [Example 16, (2S,4R)-4-(2,6-Dichloro-benzenesulfonyl)-pyrrolidine-2-carboxylic acid (1-cyano-cyclopropyl)-amide Hydrochloride]: the values for the IC50 at Cathepsin S and on Cat L were 13.2 nM and at least 25000 nM, respectively.

With `N#CC1(NC(=O)[C@@H]2C[C@@H](S(=O)(=O)c3ccc(F)cc3F)CN2)CC1` [Example 17, (2S,4R)-4-(2,4-Difluoro-benzenesulfonyl)-pyrrolidine-2-carboxylic acid (1-cyano-cyclopropyl)-amide Hydrochloride], the IC50 is 32 nM at Cathepsin S and at least 25000 nM at Cat L.

On to `N#CC1(NC(=O)[C@@H]2C[C@@H](S(=O)(=O)c3ccc(Br)cc3C(F)(F)F)CN2)CC1` [Example 18, (2S,4R)-4-(4-Bromo-2-trifluoromethyl-benzenesulfonyl)-pyrrolidine-2-carboxylic acid (1-cyano-cyclopropyl)-amide hydrochloride], for which the values for the IC50 on Cathepsin S and at Cat L were 3.3 nM and 30300 nM, respectively.

Consider `N#CC1(NC(=O)[C@@H]2C[C@@H](S(=O)(=O)c3ccc(-n4cccn4)cc3C(F)(F)F)CN2)CC1` [Example 19, (2S,4R)-4-(4-Pyrazol-1-yl-2-trifluoromethyl-benzenesulfonyl)-pyrrolidine-2-carboxylic acid (1-cyano-cyclopropyl)-amide hydrochloride], for which the concentration for half-maximal inhibition (IC50) was 1.3 nM at Cathepsin S and at least 25000 nM on Cat L.

On to `N#CC1(NC(=O)[C@@H]2C[C@@H](S(=O)(=O)c3ccc(-n4ccnc4)cc3C(F)(F)F)CN2)CC1` [Example 20, (2S,4R)-4-(4-Imidazol-1-yl-2-trifluoromethyl-benzenesulfonyl)-pyrrolidine-2-carboxylic acid (1-cyano-cyclopropyl)-amide hydrochloride], for which the IC50 was 1 nM on Cathepsin S and at least 25000 nM on Cat L.

For `CN1CCN(c2ccc(S(=O)(=O)[C@H]3CN[C@H](C(=O)NC4(C#N)CC4)C3)c(C(F)(F)F)c2)CC1` [Example 21, (2S,4R)-4-[4-(4-Methyl-piperazin-1-yl)-2-trifluoromethyl-benzenesulfonyl]-pyrrolidine-2-carboxylic acid (1-cyano-cyclopropyl)-amide hydrochloride], the IC50 on Cathepsin S turned out to be 0.8 nM; on Cat L, 40800 nM.

Consider `N#CC1(NC(=O)[C@@H]2C[C@@H](S(=O)(=O)c3ccc(-n4cnc5ccccc54)cc3C(F)(F)F)CN2)CC1` [Example 22, (2S,4R)-4-(4-Benzoimidazol-1-yl-2-trifluoromethyl-benzenesulfonyl)-pyrrolidine-2-carboxylic Acid (1-cyano-cyclopropyl)-amide hydrochloride], for which the IC50 at Cathepsin S is 0.5 nM; at Cat L, at least 25000 nM.

On to `Cc1ccc(=O)n(-c2ccc(S(=O)(=O)[C@H]3CN[C@H](C(=O)NC4(C#N)CC4)C3)c(C(F)(F)F)c2)n1` [Example 23, (2S,4R)-4-[4-(3-M ethyl-6-oxo-6H-pyridazin-1-yl)-2-trifluoromethyl-benzenesulfonyl]-pyrrolidine-2-carboxylic acid (1-cyano-cyclopropyl)-amide hydrochloride], for which the IC50 on Cathepsin S was 0.9 nM; at Cat L, at least 25000 nM.

`Cc1nccn1-c1ccc(S(=O)(=O)[C@H]2CN[C@H](C(=O)NC3(C#N)CC3)C2)c(C(F)(F)F)c1` [Example 24, (2S,4R)-4-[4-(2-M ethyl-imidazol-1-yl)-2-trifluoromethyl-benzenesulfonyl]-pyrrolidine-2-carboxylic acid (1-cyano-cyclopropyl)-amide hydrochloride]: the IC50 on Cathepsin S was 2.6 nM; on Cat L, at least 25000 nM.

`N#CC1(NC(=O)[C@@H]2C[C@@H](S(=O)(=O)c3ccc(-n4ccnc4-c4ccccc4)cc3C(F)(F)F)CN2)CC1` [Example 25, (2S,4R)-4-[4-(2-Phenyl-imidazol-1-yl)-2-trifluoromethyl-benzenesulfonyl]-pyrrolidine-2-carboxylic acid (1-cyano-cyclopropyl)-amide hydrochloride]: the concentration for half-maximal inhibition (IC50) at Cathepsin S was 2.3 nM; at Cat L it was at least 25000 nM.

On to `N#CC1(NC(=O)[C@@H]2C[C@@H](S(=O)(=O)c3ccc(N4CCCC4=O)cc3C(F)(F)F)CN2)CC1` [Example 26, (2S,4R)-4-[4-(2-Oxo-pyrrolidin-1-yl)-2-trifluoromethyl-benzenesulfonyl]-pyrrolidine-2-carboxylic acid (1-cyano-cyclopropyl)-amide hydrochloride], for which the IC50 on Cathepsin S is 2.8 nM; at Cat L, at least 25000 nM.

Consider `N#CC1(NC(=O)[C@@H]2C[C@@H](S(=O)(=O)c3ccc(N4CCOC4=O)cc3C(F)(F)F)CN2)CC1` [Example 27, (2S,4R)-4-[4-(2-oxo-oxazolidin-3-yl)-2-trifluoromethyl-benzenesulfonyl]-pyrrolidine-2-carboxylic acid (1-cyano-cyclopropyl)-amide hydrochloride], for which the IC50 at Cathepsin S is 2.2 nM; on Cat L, at least 25000 nM.

As for `N#CC1(NC(=O)[C@@H]2C[C@@H](S(=O)(=O)c3ccc(N4CCC(F)(F)C4)cc3C(F)(F)F)CN2)CC1` [Example 28, (2S,4R)-4-[4-(3,3-Difluoro-pyrrolidin-1-yl)-2-trifluoromethyl-benzenesulfonyl]-pyrrolidine-2-carboxylic acid (1-cyano-cyclopropyl)-amide hydrochloride], the IC50 at Cathepsin S was 1.5 nM; on Cat L, at least 25000 nM.

With `N#CC1(NC(=O)[C@@H]2C[C@@H](S(=O)(=O)c3ccc(N4CCOCC4)cc3C(F)(F)F)CN2)CC1` [Example 29, (2S,4R)-4-(4-Morpholin-4-yl-2-trifluoromethyl-benzenesulfonyl)-pyrrolidine-2-carboxylic acid (1-cyano-cyclopropyl)-amide hydrochloride], the IC50 at Cathepsin S was 0.8 nM; on Cat L it was 39900 nM.

For `N#CC1(NC(=O)[C@@H]2C[C@@H](S(=O)(=O)c3ccc(N4CCOCC4=O)cc3C(F)(F)F)CN2)CC1` [Example 30, (2S,4R)-4-[4-(3-Oxo-morpholin-4-yl)-2-trifluoromethyl-benzenesulfonyl]-pyrrolidine-2-carboxylic acid (1-cyano-cyclopropyl)-amide hydrochloride], the results for the IC50 on Cathepsin S and on Cat L were 3 nM and at least 25000 nM, respectively.

For the origin of these results see US8163793B2, “Proline derivatives” (Hoffman-La Roche Inc., priority 2009, dated 2012).
